# Calls of active or inactive are those of the source. The calls are words filed in the database; no cut-off is given here.
# Assays:
# Enterococcus [1] = assay: Antibacterial activity against Enterococcus NR 31903 assessed as reduction in bacterial growth incubated for 16 to 18 hrs by broth microdilution method; assay type: functional; conditions: time 16-18 hrs
# Klebsiella pneumoniae = assay: Antibacterial activity against Klebsiella pneumoniae BAA 1705 assessed as reduction in bacterial growth incubated for 16 to 18 hrs by broth microdilution method; assay type: functional; conditions: time 16-18 hrs
# Acinetobacter baumannii = assay: Antibacterial activity against Acinetobacter baumannii BAA 1605 assessed as reduction in bacterial growth incubated for 16 to 18 hrs by broth microdilution method; assay type: functional; conditions: time 16-18 hrs
# Pseudomonas aeruginosa = assay: Antibacterial activity against Pseudomonas aeruginosa ATCC 27853 assessed as reduction in bacterial growth incubated for 16 to 18 hrs by broth microdilution method; assay type: functional; conditions: time 16-18 hrs
# Escherichia coli [2] = assay: Antibacterial activity against Escherichia coli ATCC 25922 assessed as reduction in bacterial growth incubated for 16 to 18 hrs by broth microdilution method; assay type: functional; conditions: time 16-18 hrs
# [3] = Selectivity index, ratio of CC50 for African green monkey Vero cells to MIC for Staphylococcus aureus ATCC 29213; assay type: toxicity; conditions: read-out: Selectivity Index
# Escherichia coli [4] = assay: Antibacterial activity against Escherichia coli ATCC 25922 assessed as reduction in bacterial growth incubated for 16 to 18 hrs in presence of PMBN by broth microdilution method; assay type: functional; conditions: time 16-18 hrs
# Staphylococcus aureus [5] = assay: Antibacterial activity against methicillin/tetracycline resistant Staphylococcus aureus NRS 100 assessed as reduction in bacterial growth incubated for 16 to 18 hrs by broth microdilution method; assay type: functional; conditions: time 16-18 hrs
# Staphylococcus aureus [6] = assay: Antibacterial activity against gentamycin/linezolid/methicillin/trimeth/sulfa resistant Staphylococcus aureus NRS 119 assessed as reduction in bacterial growth incubated for 16 to 18 hrs by broth microdilution method; assay type: functional; conditions: time 16-18 hrs
# Staphylococcus aureus [7] = assay: Antibacterial activity against methicillin/meropenem/levoflaxacin resistant Staphylococcus aureus NRS 198 assessed as reduction in bacterial growth incubated for 16 to 18 hrs by broth microdilution method; assay type: functional; conditions: time 16-18 hrs
# Staphylococcus aureus [8] = assay: Antibacterial activity against methicillin/levoflaxacin/meropenem resistant Staphylococcus aureus NRS 191 assessed as reduction in bacterial growth incubated for 16 to 18 hrs by broth microdilution method; assay type: functional; conditions: time 16-18 hrs
# Staphylococcus aureus [9] = assay: Antibacterial activity against methicillin/levoflaxacin/meropenem resistant Staphylococcus aureus NRS 193 assessed as reduction in bacterial growth incubated for 16 to 18 hrs by broth microdilution method; assay type: functional; conditions: time 16-18 hrs
# Staphylococcus aureus [10] = assay: Antibacterial activity against methicillin/levoflaxacin/meropenem resistant Staphylococcus aureus NRS 186 assessed as reduction in bacterial growth incubated for 16 to 18 hrs by broth microdilution method; assay type: functional; conditions: time 16-18 hrs
# Staphylococcus aureus [11] = assay: Antibacterial activity against methicillin/meropenem resistant Staphylococcus aureus NRS 194 assessed as reduction in bacterial growth incubated for 16 to 18 hrs by broth microdilution method; assay type: functional; conditions: time 16-18 hrs
# Staphylococcus aureus [12] = assay: Antibacterial activity against methicillin/levoflaxacin/vancomycin/meropenem/gentamycin/spectinomycin/teicoplanin resistant Staphylococcus aureus VRS 4 assessed as reduction in bacterial growth incubated for 16 to 18 hrs by broth microdilution method; assay type: functional; conditions: time 16-18 hrs
# Enterococcus [13] = assay: Antibacterial activity against vancomycin sensitive/methicillin resistant Enterococcus NR 31884 assessed as reduction in bacterial growth incubated for 16 to 18 hrs by broth microdilution method; assay type: functional; conditions: time 16-18 hrs
# Enterococcus [14] = assay: Antibacterial activity against vancomycin sensitive/methicillin resistant Enterococcus NR 31886 assessed as reduction in bacterial growth incubated for 16 to 18 hrs by broth microdilution method; assay type: functional; conditions: time 16-18 hrs
# Enterococcus [15] = assay: Antibacterial activity against vancomycin sensitive/methicillin resistant Enterococcus NR 31887 assessed as reduction in bacterial growth incubated for 16 to 18 hrs by broth microdilution method; assay type: functional; conditions: time 16-18 hrs
# Enterococcus [16] = assay: Antibacterial activity against vancomycin/methicillin/levoflaxacin/minocycline resistant Enterococcus NR 31909 assessed as reduction in bacterial growth incubated for 16 to 18 hrs by broth microdilution method; assay type: functional; conditions: time 16-18 hrs
# Enterococcus [17] = assay: Antibacterial activity against vancomycin/methicillin/levoflaxacin/minocycline resistant Enterococcus NR 31912 assessed as reduction in bacterial growth incubated for 16 to 18 hrs by broth microdilution method; assay type: functional; conditions: time 16-18 hrs
# Staphylococcus aureus [18] = assay: Bactericidal activity against Staphylococcus aureus ATCC 29213 assessed as reduction in log10 CFU at 1 time MIC after 1 hr by time kill assay; assay type: functional
# Staphylococcus aureus [19] = assay: Bactericidal activity against Staphylococcus aureus ATCC 29213 assessed as reduction in log10 CFU at 10 time MIC after 1 hr by time kill assay; assay type: functional
# Staphylococcus aureus [20] = assay: Bactericidal activity against Staphylococcus aureus ATCC 29213 assessed as inhibition of bacterial regrowth at 10 time MIC after 24 hrs by time kill assay; assay type: functional, organism-based
# Staphylococcus aureus [21] = assay: Antibacterial activity against Staphylococcus aureus ATCC 29213 infected in mouse J774A.1 cells assessed as reduction in intracellular bacterial cells at 5 times MIC incubated for 24 hrs followed by re-plating on TSA plate and measured after 18 to 24 hrs; assay type: functional
# Staphylococcus aureus [22] = assay: Synergistic antibacterial activity against Staphylococcus aureus ATCC 29213 assessed as reduction in bacterial growth incubated for 24 hrs in presence of gentamycin by checkerboard method; assay type: functional
# Staphylococcus aureus [23] = assay: Synergistic antibacterial activity against Staphylococcus aureus ATCC 29213 assessed as reduction in bacterial growth incubated for 24 hrs in presence of daptomycin by checkerboard method; assay type: functional
# Staphylococcus aureus [24] = assay: Synergistic antibacterial activity against Staphylococcus aureus ATCC 29213 assessed as reduction in bacterial growth incubated for 24 hrs in presence of levofloxacin by checkerboard method; assay type: functional
# Staphylococcus aureus [25] = assay: Synergistic antibacterial activity against Staphylococcus aureus ATCC 29213 assessed as reduction in bacterial growth incubated for 24 hrs in presence of ceftazidime by checkerboard method; assay type: functional
# Staphylococcus aureus [26] = assay: Synergistic antibacterial activity against Staphylococcus aureus ATCC 29213 assessed as reduction in bacterial growth incubated for 24 hrs in presence of meropenem by checkerboard method; assay type: functional
# Staphylococcus aureus [27] = assay: Synergistic antibacterial activity against Staphylococcus aureus ATCC 29213 assessed as reduction in bacterial growth incubated for 24 hrs in presence of minocycline by checkerboard method; assay type: functional
# Staphylococcus aureus [28] = assay: Synergistic antibacterial activity against Staphylococcus aureus ATCC 29213 at 1 time MIC after 24 hrs in presence of gentamicin by time kill assay; assay type: functional
# Staphylococcus aureus [29] = assay: Synergistic antibacterial activity against Staphylococcus aureus ATCC 29213 at 1 time MIC after 24 hrs in presence of linezolid by time kill assay; assay type: functional
# Staphylococcus aureus [30] = assay: Post antibiotic effect against Staphylococcus aureus ATCC 29213 at 10 times MIC incubated for 1 hr followed by replacement with drug free medium and measured every 1 hr (reference value: 0 hr); assay type: functional
# Staphylococcus aureus [31] = assay: Bactericidal activity against Staphylococcus aureus ATCC 29213 assessed as increase in dead bacterial cells at 2.5 times MIC after 30 mins by confocal laser scanning microscopy analysis; assay type: functional, organism-based
# Staphylococcus aureus [32] = assay: Synergistic antibacterial activity against Staphylococcus aureus ATCC 29213 assessed as fractional inhibitory concentration incubated for 24 hrs in presence of ceftazidime by checkerboard method; assay type: functional
# Staphylococcus aureus [33] = assay: Synergistic antibacterial activity against Staphylococcus aureus ATCC 29213 assessed as fractional inhibitory concentration incubated for 24 hrs in presence of rifampicin by checkerboard method; assay type: functional
# Staphylococcus aureus [34] = assay: Synergistic antibacterial activity against Staphylococcus aureus ATCC 29213 assessed as fractional inhibitory concentration incubated for 24 hrs in presence of vancomycin by checkerboard method; assay type: functional
# Staphylococcus aureus [35] = assay: microbe, parasite or virus in culture; conditions: ATCC 29213
# Description: Antibacterial activity against Staphylococcus aureus ATCC 29213 assessed as reduction in bacterial growth incubated for 16 to 18 hrs by broth microdilution method
compound,measurement,setting,value
COc1cc2oc(-c3ccc(O)cc3O)c(CC=C(C)C)c(=O)c2c(O)c1/C=C/C(C)C [ARTOCARPIN],MIC,Enterococcus [1],2 µg/mL
same,MIC,Klebsiella pneumoniae,> 128 µg/mL
same,MIC,Acinetobacter baumannii,> 128 µg/mL
same,MIC,Pseudomonas aeruginosa,> 128 µg/mL
same,MIC,Escherichia coli [2],> 128 µg/mL
same,selectivity ratio,[3],40
same,MIC,Escherichia coli [4],8 µg/mL
same,MIC,Staphylococcus aureus [5],4 µg/mL
same,MIC,Staphylococcus aureus [6],4 µg/mL
same,MIC,Staphylococcus aureus [7],2 µg/mL
same,MIC,Staphylococcus aureus [8],4 µg/mL
same,MIC,Staphylococcus aureus [9],4 µg/mL
same,MIC,Staphylococcus aureus [10],4 µg/mL
same,MIC,Staphylococcus aureus [11],4 µg/mL
same,MIC,Staphylococcus aureus [12],4 µg/mL
same,MIC,Enterococcus [13],2 µg/mL
same,MIC,Enterococcus [14],2 µg/mL
same,MIC,Enterococcus [15],2 µg/mL
same,MIC,Enterococcus [16],1 µg/mL
same,MIC,Enterococcus [17],2 µg/mL
same,Activity,Staphylococcus aureus [18],3.6 log10CFU/ml
same,Activity,Staphylococcus aureus [19],4.8 log10CFU/ml
same,Activity,Staphylococcus aureus [20],Active
same,Activity,Staphylococcus aureus [21],3.25 log10CFU/ml
same,MIC,Staphylococcus aureus [22],0.06 µg/mL
same,MIC,Staphylococcus aureus [23],1 µg/mL
same,MIC,Staphylococcus aureus [24],2 µg/mL
same,MIC,Staphylococcus aureus [25],2 µg/mL
same,MIC,Staphylococcus aureus [26],2 µg/mL
same,MIC,Staphylococcus aureus [27],1 µg/mL
same,Activity,Staphylococcus aureus [28],100%
same,Activity,Staphylococcus aureus [29],4 log10CFU/ml
same,PAE,Staphylococcus aureus [30],22 h
same,Activity,Staphylococcus aureus [31],Active
same,FIC,Staphylococcus aureus [32],0.5
same,FIC,Staphylococcus aureus [33],0.5
same,FIC,Staphylococcus aureus [34],0.5
same,MIC,Staphylococcus aureus [35],2 µg/mL

# Reference: ChEMBL document CHEMBL5137134, “Developing the Natural Prenylflavone Artocarpin from Artocarpus hirsutus as a Potential Lead Targeting Pathogenic, Multidrug-Resistant Staphylococcus aureus, Persisters and Biofilms with No Detectable Resistance” (J Nat Prod, 2022)
